Measured values reported in the METLIN SMRT retention time set (Domingo-Almenara et al. 2019).

Experiment: gradient 5% acetonitrile 3 min, to 50% in 2 min, to 85% in 15 min, held 3 min, 100 µL/min
Details: column: Zorbax Extend-C18 2.1 x 50 mm; eluents: water / acetonitrile, 0.1% formic acid
How it was run: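 Using water and acetonitrile that each contained 0.1% formic acid, mixtures of ~100 pure standards were separated at 100 μL/min on a Zorbax Extend-C18 column (2.1 × 50 mm, 1.8 μm). The HPLC fed a quadrupole time-of-flight mass spectrometer working in positive and negative ionization mode, with dead and dwell volumes of 40 μL and 900 μL. Data were acquired over 3 months. Retention time was read from computationally picked adduct peaks after manual inspection of each.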
An RP-LC retention time of 819 s was found for `Cc1cc(NC(=O)N(C)CC2CCOCC2)ccc1Br` in this work.
An RP-LC retention time of 897 s was found for `Cc1oc(-c2ccc(NC(=O)CCc3ccccc3)cc2)nc1Cn1cccn1` in this work.
An RP-LC retention time of 798 s was found for `CCc1ccc(S(=O)(=O)N2CCC3(CC2)NCCN=C3NCc2cc(F)cc(F)c2)cc1` in this work.
An RP-LC retention time of 593 s was found for `CCN(Cc1nc2ccccc2n1C)c1ccccc1` in this work.
An RP-LC retention time of 1170 s was found for `Cc1oc(C(C)C)nc1C(=O)Nc1ccc(F)c(Cl)c1` in this work.
An RP-LC retention time of 717 s was found for `CS(=O)(=O)N1CCc2ccc(C(=O)N3CCCCC3)cc21` in this work.
An RP-LC retention time of 683 s was found for `Cc1cc(C(=O)N2CCC3(CCC3O)CC2)c(C)o1` (stereo unspecified) in this work.
An RP-LC retention time of 846 s was found for `Cc1cc(NC(=O)CSc2c(-c3ccccc3)[nH]c3ccccc23)no1` in this work.
An RP-LC retention time of 644 s was found for `O=C(CC1CCN(C(=O)c2cc3cc(Cl)ccc3[nH]2)CC1)NCCCN1CCCC1` in this work.
An RP-LC retention time of 673 s was found for `CCNC(=O)N1CC=C(C(=O)Nc2cccc(F)c2)CC1` in this work.
An RP-LC retention time of 654 s was found for `NC(=O)c1cnc(N[C@@H]2CCCC[C@@H]2N)nc1Nc1cccc(-n2nccn2)c1` in this work.
An RP-LC retention time of 644 s was found for `CN1C(=O)[C@H]2CN(Cc3ccc(Cl)cc3F)C[C@H]2C1=O` in this work.
An RP-LC retention time of 627 s was found for `O=C(c1cccs1)N1CCCC(c2nn[nH]n2)C1` (stereo unspecified) in this work.
An RP-LC retention time of 565 s was found for `CCCCc1ccc(NC(=O)N2CCC3(C2)c2nc[nH]c2CCN3C)cc1` (stereo unspecified) in this work.
An RP-LC retention time of 803 s was found for `CC(C)C(=O)NCCc1csc(C2CCCN(C(=O)c3cc4ccccc4[nH]3)C2)n1` (stereo unspecified) in this work.
An RP-LC retention time of 899 s was found for `CCc1cccc(NC(=O)Cn2nc3cc(C)nc(-c4ccccc4)n3c2=O)c1` in this work.
An RP-LC retention time of 936 s was found for `CCCN(CC1CCOC1)S(=O)(=O)c1ccc(OC)c(Cl)c1` (stereo unspecified) in this work.
An RP-LC retention time of 846 s was found for `CC(C(=O)N1CCCN(c2cc(=O)n(C(C)C)c(=O)n2C(C)C)CC1)N1C(=O)COc2ccccc21` (stereo unspecified) in this work.
An RP-LC retention time of 1050 s was found for `Cc1cccc(-c2noc(-c3nc(C)no3)n2)c1` in this work.
An RP-LC retention time of 678 s was found for `COc1cccc(-c2noc(N3CCN(c4ccccn4)CC3)n2)c1` in this work.
An RP-LC retention time of 931 s was found for `CCOC(=O)c1sc(N2CCN(c3ccccc3)CC2)nc1N` in this work.
An RP-LC retention time of 861 s was found for `O=S(=O)(Cc1ccccc1F)N1CCOc2ccc(N3CCOCC3)cc2C1` in this work.
An RP-LC retention time of 1060 s was found for `Cc1nc(-c2csc(S(=O)(=O)N3CCCC(C(=O)NC4CCCCCCC4)C3)c2)no1` (stereo unspecified) in this work.
An RP-LC retention time of 931 s was found for `CCOCCOC(=O)C1=C(C)NC2=C(C(=O)C(C(=O)OC)C(C)C2)C1c1cccc(Cl)c1` (stereo unspecified) in this work.
An RP-LC retention time of 667 s was found for `COc1ccc(CNC(=O)N2CCN(Cc3nc4cc(Cl)ccc4o3)CC2)cc1` in this work.
An RP-LC retention time of 644 s was found for `CCCn1c(CCNC(=O)c2cccc(F)c2)nc2cccnc21` in this work.
An RP-LC retention time of 1270 s was found for `Cc1cccc(-c2noc(C3CCCN3S(=O)(=O)c3ccc4c(c3)CCC4)n2)c1` (stereo unspecified) in this work.
An RP-LC retention time of 592 s was found for `COc1cn2c(cc1=O)C(=O)N(CCNC(=O)C1c3ccccc3Oc3ccccc31)CC2` in this work.
An RP-LC retention time of 666 s was found for `CCCCN(C)C(=O)C1CCCCc2nnc(C(C)C)n21` (stereo unspecified) in this work.
An RP-LC retention time of 581 s was found for `COc1ccc(CN2CCC3(CC2)CC(O)CCO3)c(OC)c1` (stereo unspecified) in this work.
An RP-LC retention time of 838 s was found for `Cc1ccc(NC(=O)C2CCCN(c3ncnc4c3nc3n4CCCCC3)C2)cc1` (stereo unspecified) in this work.
An RP-LC retention time of 869 s was found for `Cc1ccc(CNC(=O)c2ccc(-c3nnc4ccc(NC(=O)C5CCC5)cn34)cc2)cc1` in this work.
An RP-LC retention time of 898 s was found for `CCN1CCN(C2=NCCN2C(=O)c2ccccc2Br)CC1` in this work.
An RP-LC retention time of 568 s was found for `O=C(NCc1cccnc1)C1(c2ccc(F)cc2)CC1` in this work.
An RP-LC retention time of 663 s was found for `CCOC(=O)C1=C(CN2CCN(C(C)CC)CC2)NC(=O)NC1c1ccc(Cl)cc1` (stereo unspecified) in this work.
An RP-LC retention time of 597 s was found for `COc1ccc2nc3oc(C(=O)NCCN4CCN(C)CC4)cc3cc2c1` in this work.
An RP-LC retention time of 848 s was found for `CCn1cc(S(=O)(=O)Nc2ccc(F)c(F)c2)c2cccnc21` in this work.
An RP-LC retention time of 743 s was found for `COc1ccc(N2CCN(C(=O)Cn3ccc4c(SCc5ccccc5)nccc43)CC2)cc1` in this work.
An RP-LC retention time of 1120 s was found for `CC(C)(C)c1noc(-c2ccc(=O)n(Cc3ccc(Cl)cc3)n2)n1` in this work.
An RP-LC retention time of 1190 s was found for `CCn1c(=O)oc2cc(-c3noc(-c4ccc(F)cc4Cl)n3)ccc21` in this work.
An RP-LC retention time of 620 s was found for `Cc1cccc(NC(=O)N2CCC(CN3CCCC(C)C3)CC2)c1C` (stereo unspecified) in this work.
An RP-LC retention time of 857 s was found for `O=C(c1cc2ccccc2[nH]1)N1CCCC(c2nnc(C(F)(F)F)o2)C1` (stereo unspecified) in this work.
An RP-LC retention time of 642 s was found for `CN(CCNc1nc(-c2ccc(Cl)cc2)nc2ccccc12)C1CCCCC1` in this work.
An RP-LC retention time of 654 s was found for `CN(C)C(=O)c1ccc2c(c1)N(CC(=O)Nc1ccc(F)cc1)C(=O)CO2` in this work.
An RP-LC retention time of 516 s was found for `COc1ccc(C(=O)N2CCc3nc(CNC(=O)C4CCC4)n(C)c3C2)cc1` in this work.
An RP-LC retention time of 592 s was found for `OCCN1CCN(c2ncnc3c2cnn3-c2cccc(Cl)c2)CC1` in this work.
